Experimental data from ChEMBL document CHEMBL1149570, “Thiotetrazole alkynylacetanilides as potent and bioavailable non-nucleoside inhibitors of the HIV-1 wild type and K103N/Y181C double mutant reverse transcriptases” (Bioorg Med Chem Lett, 2007).

Assays:
Assay type in all cases: ADME, organism-based
[1] = AUC in rat at 5 mg/kg, po; parameters: dose 5 mg/kg, route oral; conditions: plasma
[2] = Oral bioavailability in rat at 5 mg/kg; conditions: in vivo
[3] = Cmax in rat at 5 mg/kg, po; parameters: dose 5 mg/kg, route oral; conditions: in vivo

Compound | AUC [1] [nM·h] | bioavailability [2] [%] | Cmax [3] [µM]
CC(C)(C#Cc1ccc(NC(=O)CSc2nnnn2-c2ccc(C3CC3)cc2Cl)c(Cl)c1)NC(=O)CN | 1000 | 21 | 0.28
CC(C)(C#Cc1ccc(NC(=O)CSc2nnnn2-c2ccc(C3CC3)cc2Cl)c(Cl)c1)CNCC(=O)O | 840 | 29 | 0.26
CC(C)(C#Cc1ccc(NC(=O)CSc2nnnn2-c2ccc(C3CC3)cc2Cl)c(Cl)c1)C(=O)O | 9500 | 66 | 5
